From patent publication US20040009210A1, “Wound management products incorporating cationic compounds” (Kimberly-Clark Worldwide, Inc., priority 2002, published 2004)

Assay: Effective charge density of the cationic compound (measured)
Type: physicochemical

- effective charge density (measured): about 1300 microequivalents/gram
Compound: CCCCCCCC/C=C\CCCCCCCC(=O)NCC[N+]1=C(CCCCCCC/C=C\CCCCCCCC)N(C)CC1.COS(=O)(=O)[O-] [cationic softener, 1-methyl-2-Noroleyl-3-oleyl amidoethyl imidazolinium methosulfate]
